Experimental data: patent publication US20120315629A1, “Cloning and Expression of arNOX Protein Transmembrane 9 Superfamily (TM9SF), Methods and Utility” (Nox Technologies ,Inc., priority 2009, published 2012)

Target: T1, Recombinant arNOX (TM9SF4) (Homo sapiens, UniProt Q92544)
T1 construct: cloning of the soluble fragment of TM9SF4 was successful; Met-Ala-Ser leader from NdeI/NheI of pET11b (my inference from the forward primer CATATGGCTAGCATG); made in house; host or cells: E. coli BL21 (DE3), pET11b
T1 sequence (Q92544 24-252): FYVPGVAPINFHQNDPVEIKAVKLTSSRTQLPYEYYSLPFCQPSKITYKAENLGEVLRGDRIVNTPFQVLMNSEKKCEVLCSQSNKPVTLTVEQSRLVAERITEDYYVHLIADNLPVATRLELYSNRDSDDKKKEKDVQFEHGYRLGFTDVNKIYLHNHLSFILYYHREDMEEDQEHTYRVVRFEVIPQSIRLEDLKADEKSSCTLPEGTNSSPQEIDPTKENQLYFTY
Experiment: arNOX activity: superoxide generation measured by reduction of ferricytochrome c
Format: biochemical
Details: test compounds added after 45 min, reaction continued for an additional 45 min; for inhibition of recombinant arNOX (TM9SF4) activity: extracts made in water unless otherwise indicated
Method: Reduction of ferric cytochrome c by superoxide was employed as a standard measure of superoxide formation (Mayo, L. A. and Curnutte, J., 1990, Meth. Enzymol. 186:567-575; Butler, J. et al., 1982, J. Biol. Chem. 257:10747-10750). This method, when coupled to superoxide dismutase inhibition, is generally accepted for the measurement of superoxide generation. The assay consists of 150 μl buffy coat material in PBSG buffer (8.06 g NaCl, 0.2 g KCl, 0.18 g Na2HPO4, 0.13 g CaCl2, 0.1 g MgCl2, 1.35 g glucose dissolved in 1000 ml deionized water, adjusted to pH 7.4, filtered and stored at 4° C.). Reduction of ferricytochrome c by superoxide was monitored as the increase in absorbance at 550 nm, with reference at 540 nm (Butler et al., 1982). As a further control for the specificity of the arNOX activity, 60 units of superoxide dismutase (SOD) were added near the end of the assay to ascertain that the rate returned to base line. Rates were determined using a SLM Aminco DW-2000 spectrophotometer in the dual wavelength mode of operation.
Rates were determined using an SLM Aminco DW-2000 spectrophotometer (Milton Roy, Rochester, N.Y.) in the dual wave length mode of operation with continuous measurements over 1 min every 1.5 min. After 45 min, test compounds were added and the reaction was continued for an additional 45 min. After 45 min, a millimolar extinction coefficient of 19.1 cm^−1 was used for reduced ferricytochrome c. The results of the test compounds are provided below (Table 4) for experiments carried out with TM9SF4, but from the results of FIG. 7, it is concluded that all the arNOX isoforms have similar responses to the various compounds given below. Extracts were made of the compounds in water unless otherwise indicated.

inhibition of recombinant arNOX (TM9SF4) activity [%] | Molecule | sensitivity of recombinant arNOX (TM9SF4) activity to the compound (in words)
80 | O=C(O)c1cc(O)c(O)c(O)c1 [gallic acid] | –
– | CCC(C)C(=O)OC1C(=O)OC2CC3C(C)=CC(=O)C(O)C3(C)C3C(O)C(O)C4(C)OCC23C14 (stereo not drawn) [similikalactone D] | resistant
78 | superoxide dismutase | –
